{"source": "paper PMC11984586", "about": "“A novel spider toxin as a selective antagonist of the Kv1 subfamily of voltage-gated potassium channels through gating modulation” (The Journal of Biological Chemistry, 2025)", "key": {"hKv1.2": {"target": "T1, hKv1.2 (Homo sapiens, UniProt P16389)", "T1 construct": "expressed in transfected cells; host or cells: CHO-K1", "assay": "Whole-cell patch clamp, Kv1.2 ionic current in CHO-K1 cells", "assay_type": "cell-based", "settings": "+30 mV, 500 ms, holding −80 mV, mean ± SD, n = 4–7, read-out: IC50, inhibition of Kv1.2 current (full inhibition)", "protocol": "(§1) The cDNA of hKv1.1, hKv1.2, hKv1.3, rKv1.4, hKv1.5, mKv1.6, and hKv1.7 were subcloned into mammalian expression vectors pcDNA3.1 or pCMV-blank vectors, as well as other plasmids described previously ([35]). Channel mutants were generated by site-directed mutations. Briefly, the parental channel plasmid was amplified using a pair of oppositely directed primers harboring the designed mutation site, with KOD Fx (TOYOBO Co, Ltd). The resulting PCR mix was treated with FastDigest DpnI (Thermo Fisher Scientific) to remove the methylated template. Ten microliters of the digested product was then used to transform 100 μl E. coli DH5α competent cells. […]\n(§2) CHO-K1 cells were selected for expressing Kv channels due to their lack of endogenous Kv channels, while HEK293 or ND7/23 cells were used for Nav and Cav channel expression. […] After 4 to 6 h transfection, cells were seeded onto poly-lysine–coated coverslips, and 24 to 36 h later, transfected cells were ready for patch-clamp analysis. […]\n(§3) For Kv current recordings, the bath solution contained (in mM) the following: 140 NaCl, 5 KCl, 1 MgCl2, 2 CaCl2, 10 glucose, and 10 Hepes (pH 7.3, adjusted with NaOH), and the pipette solution contained (in mM) the following: 140 KCl, 2.5 MgCl2, 11 EGTA, and 10 Hepes (pH 7.3, adjusted with KOH). […] The steady-state fast inactivation of Kv1.3 was measured using a two-pulses protocol. […]"}, "rKv1.4": {"target": "T2, rKv1.4 (Rattus norvegicus, UniProt P15385)", "T2 construct": "expressed in transfected cells; host or cells: CHO-K1", "assay": "Whole-cell patch clamp, Kv1.4 ionic current in CHO-K1 cells", "assay_type": "cell-based", "protocol": "as §1, §2, §3"}, "hKv1.7": {"target": "T3, hKv1.7 (Homo sapiens, UniProt Q96RP8)", "T3 construct": "expressed in transfected cells; host or cells: CHO-K1", "assay": "Whole-cell patch clamp, Kv1.7 ionic current in CHO-K1 cells", "assay_type": "cell-based", "settings": "mean ± SD", "protocol": "as §1, §2, §3"}, "Kv1.3 G344A mutant": {"tested_on": "Kv1.3 G344A mutant", "assay": "Whole-cell patch clamp, Kv1.3 alanine mutant", "assay_type": "cell-based, human", "settings": "100 nM MrVIII, +30 mV; n = 4–7", "protocol": "(§4) MrVIII inhibits Kv1 channels by stabilizing the voltage sensor in its resting state. […] To investigate this hypothesis, we constructed a series of alanine mutants in the S3-S4 region of the Kv1.3 channel, covering residues I336 to L363, to identify critical interactions between the peptide and the channel (Fig. 6A). […] For the remaining mutants that retained functional current expression, we evaluated the inhibitory activity of 100 nM MrVIII. […] The lack of conserved multiple interaction sites may explain the absence of activity on other Kv subfamily channels (Fig. S3). In summary, this study identified key amino acid residues in the S3-S4 region of the Kv1.3 channel that interact with MrVIII, providing a foundation for further exploration into the peptide's mechanism of action.\n(§5) The cDNA of hKv1.1, hKv1.2, hKv1.3, rKv1.4, hKv1.5, mKv1.6, and hKv1.7 were subcloned into mammalian expression vectors pcDNA3.1 or pCMV-blank vectors, as well as other plasmids described previously ([35]). Channel mutants were generated by site-directed mutations. Briefly, the parental channel plasmid was amplified using a pair of oppositely directed primers harboring the designed mutation site, with KOD Fx (TOYOBO Co, Ltd). The resulting PCR mix was treated with FastDigest DpnI (Thermo Fisher Scientific) to remove the methylated template. Ten microliters of the digested product was then used to transform 100 μl E. coli DH5α competent cells. Transformants were randomly picked and sequenced to confirm the presence of the intended mutation.\n(§6) CHO-K1 cells were selected for expressing Kv channels due to their lack of endogenous Kv channels, while HEK293 or ND7/23 cells were used for Nav and Cav channel expression. CHO-K1 cells were cultured in a Dulbecco's modified Eagle's medium/Ham's F-12 nutrient mixture (DMEM-F12) medium, and HEK293T and ND7/23 cells in DMEM medium, all supplemented with 10% fetal bovine serum and 1% penicillin-streptomycin (all from Gibco, Thermo Fisher Scientific, Inc) under standard conditions (37 °C, 5% CO2, and saturated humidity). These cell lines were purchased from Stem Cell Bank, Chinese Academy of Sciences. Channel plasmids were cotransfected with pEGFP-N1 (encoding GFP) into the respective cells using lipofectamine 2000, following the manufacturer's instructions (Invitrogen, Thermo Fisher Scientific, Inc.). Nav1.9-GFP plasmid was transfected into ND7/23 using the X-tremeGENE HP DNA Transfection Reagent (Roche). After 4 to 6 h transfection, cells were seeded onto poly-lysine–coated coverslips, and 24 to 36 h later, transfected cells were ready for patch-clamp analysis.\n(§7) Patch clamp experiments were conducted using an electrophysiology platform comprising a MultiClamp 700B amplifier and an Axon Digidata 1550 AD/DA convertor (Axon Instruments). Data acquisition was performed with pClamp 10.5 software (Axon Instruments). All experiments were performed at room temperature.\n(§8) For Kv current recordings, the bath solution contained (in mM) the following: 140 NaCl, 5 KCl, 1 MgCl2, 2 CaCl2, 10 glucose, and 10 Hepes (pH 7.3, adjusted with NaOH), and the pipette solution contained (in mM) the following: 140 KCl, 2.5 MgCl2, 11 EGTA, and 10 Hepes (pH 7.3, adjusted with KOH). Series resistance was maintained below 10 MΩ and compensated to 80%. Concentration–response curves were fitted by the Hill equation to determine the toxin's potency. Whole cell conductance (G) at each depolarizing voltage (V) was determined using the equation: G = I/(V−Vrev), where I is the current amplitude, and Vrev is the reversal potential. The reversal potential for K^+ current was estimated to be −85.6 mV using the Nernst equation. G-V curves were obtained by plotting the normalized conductance as a function of V and fitted by the Boltzmann equation: y = 1/(1+ exp((Va-V)/k)), which Va is the midpoint voltage, V is the test potential, and k is the slope factor. The steady-state fast inactivation of Kv1.3 was measured using a two-pulses protocol. […]"}, "Kv1.3 Q355A mutant": {"tested_on": "Kv1.3 Q355A mutant", "assay": "Whole-cell patch clamp, Kv1.3 alanine mutant", "assay_type": "cell-based, human", "settings": "100 nM MrVIII, +30 mV; n = 4–7", "protocol": "as §4, §5, §6, §7, §8"}, "Kv1.3 T345A mutant": {"tested_on": "Kv1.3 T345A mutant", "assay": "Whole-cell patch clamp, Kv1.3 alanine mutant", "assay_type": "cell-based, human", "settings": "100 nM MrVIII, +30 mV; n = 4–7", "protocol": "as §4, §5, §6, §7, §8"}, "hERG": {"tested_on": "hERG", "assay": "Selectivity patch clamp, non-Kv1 channels", "assay_type": "cell-based, human", "settings": "10 μM MrVIII; n = 3–5", "protocol": "as §6, with “Channel plasmids were cotransfected with pEGFP-N1 (encoding GFP) into the respective cells using lipofectamine 2000, following the manufacturer's instructions (Invitrogen, Thermo Fisher Scientific, Inc.). Nav1.9-GFP plasmid was transfected into ND7/23 using the X-tremeGENE HP DNA Transfection Reagent (Roche).” left out, “analysis. […]” for “analysis.”\nFor Kv current recordings, the bath solution contained (in mM) the following: 140 NaCl, 5 KCl, 1 MgCl2, 2 CaCl2, 10 glucose, and 10 Hepes (pH 7.3, adjusted with NaOH), and the pipette solution contained (in mM) the following: 140 KCl, 2.5 MgCl2, 11 EGTA, and 10 Hepes (pH 7.3, adjusted with KOH). […] Whole cell conductance (G) at each depolarizing voltage (V) was determined using the equation: G = I/(V−Vrev), where I is the current amplitude, and Vrev is the reversal potential. […] The steady-state fast inactivation of Kv1.3 was measured using a two-pulses protocol. […]"}}, "note": "Bridge positions count the residues as written; N and C are the ends. Peptide text beside a SMILES is read from it.", "data": [{"smiles": "CC[C@H](C)[C@@H]1NC(=O)[C@H](Cc2ccc(O)cc2)NC(=O)[C@H](CCC(N)=O)NC(=O)[C@@H]2CCCN2C(=O)[C@@H]2CSSC[C@H](NC(=O)[C@H](C)NC(=O)[C@H](CO)NC(=O)[C@H](CCC(=O)O)NC(=O)[C@H](CCC(=O)O)NC(=O)[C@@H](N)[C@@H](C)O)C(=O)NCC(=O)NCC(=O)N[C@@H](Cc3ccccc3)C(=O)N[C@@H](CC(N)=O)C(=O)N[C@@H](C)C(=O)N[C@@H](CCCNC(=N)N)C(=O)N[C@H]3CSSC[C@H](NC1=O)C(=O)N[C@@H](CCCCN)C(=O)NCC(=O)N[C@@H](Cc1c[nH]c4ccccc14)C(=O)N[C@@H](CCCNC(=N)N)C(=O)N[C@@H]([C@@H](C)O)C(=O)N[C@@H](CCCCN)C(=O)N[C@@H](CCCNC(=N)N)C(=O)N[C@H](C(=O)N[C@@H](CC(C)C)C(=O)N[C@@H](CC(N)=O)C(=O)N1CCC[C@H]1C(=O)O)CSSC[C@H](NC(=O)[C@H](CCCCN)NC(=O)[C@H](Cc1c[nH]cn1)NC(=O)[C@H](CC(C)C)NC(=O)[C@@H]1CCCN1C3=O)C(=O)N2", "note": "[MrVIII] (H-TEESACGGFNARCPLHKCCPQYICKGWRTKRCLNP-OH; disulfide 6-19, 13-24, 18-32; N-terminus and C-terminus assumed)", "values": [{"measurement": "IC50", "setting": "hKv1.2", "value": "0.5 ± 0.1", "unit": "nM"}, {"measurement": "IC50", "setting": "rKv1.4; current measured at 50 ms of a 500 ms depolarization to +30 mV, mean ± SD, n = 4–7, SD", "value": "62.7 ± 56.9", "unit": "nM"}, {"measurement": "enhancement of the 495 ms current of Kv1.4", "setting": "rKv1.4; in the presence of MrVIII (10 μM saturating), +30 mV, 495 ms", "value": 3.9, "unit": "fold"}, {"measurement": "inhi%(495 ms), Kv1.7 current", "setting": "hKv1.7; 10 μM (saturating), current at 495 ms, +30 mV", "value": "33.3 ± 3.0", "unit": "%"}, {"measurement": "IC50", "setting": "hKv1.7; current measured at 50 ms of a 500 ms depolarization to +30 mV, n = 4–7", "value": "199 ± 50.3", "unit": "nM"}, {"measurement": "reduction in inhibitory potency vs WT Kv1.3, G344A", "setting": "Kv1.3 G344A mutant", "value": "more than 5 fold"}, {"measurement": "reduction in inhibitory potency vs WT Kv1.3, Q355A", "setting": "Kv1.3 Q355A mutant", "value": "more than 5 fold"}, {"measurement": "reduction in inhibitory potency vs WT Kv1.3, T345A", "setting": "Kv1.3 T345A mutant", "value": "more than 5 fold"}, {"measurement": "inhibition of hERG current", "setting": "hERG", "value": "did not remarkably inhibit"}]}]}
